Results published in US20110275678A1, “New Pyridine Derivatives as Leptin Receptor Modulator Mimetics” (priority 2008, published 2011).
pEC50: −log10 of the molar value.

Legend:
[1] = system: JEG-3 cells; details: Biol. Reprod. (2007) 76: 203-10; cited from earlier work
[2] = system: JEG-3 cells; experiment: [3H]-thymidine incorporation by JEG-3 cells (leptin assay in non-recombinant system); format: cell-based; details: FIG. 5
Source text: Leptin Assay in Non-Recombinant System The leptin receptor expression in non-recombinant system is often fluctuating and care must be given to identify a system where signal stability remains within experiments. Using such a system, leptin receptor antagonist mimetics could be identified by evaluating is their action vs. leptin (see below). Leptin is produced chiefly in adipose cells, but in humans, mRNA encoding leptin is also present in the placenta. Here, leptin might play an important proliferative role in the microvasculature. The possibility to use this hypothesis in a native cell line was evaluated. JEG-3 Protocol In JEG-3 cells (choriocarcinoma cell line) leptin is able to stimulate proliferation up to 3 fold (Biol. Reprod. (2007) 76: 203-10). […] The radioactivity incorporated by the cells is an index of their proliferative activity and is measured in counts per minute (CPM) with a liquid scintillation beta counter. This finding can be applied to test whether a compound is able to either reproduce the effect of leptin on cell proliferation (leptin receptor agonist mimetic) (i.e., a given compound will cause an increase in incorporated [^3H]-Thymidine by the cells) or to inhibit the effect of leptin (antagonistic effect) by preventing the leptin-mediated increase in [^3H]-thymidine incorporation. […]

pEC50 ([2]; JEG-3 cells (choriocarcinoma cell line), read-out: EC50, increase in [3H]-thymidine incorporation): 8.68
Substance: leptin: a hormone synthesized in fat cells that is believed to act in the hypothalamus to reduce food intake and body weight
stimulation of proliferation [1]: up to 3 fold
concentration of maximal effect on [3H]-thymidine incorporation ([2]; JEG-3 cells): 100 nM
